Among the data in PubChem BioAssay (NCI) are TGI values, retold here.

SMILES strings stand for the structures.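 Assay format: 96-well plates, 48-hour exposure. The concentration for full growth arrest is given as TGI.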

Holding throughout (assay): NCI tumour cell line growth inhibition, 48 h
In assay [1] the test system is SF-268 CNS.
In assay [2] the test system is DMS 114 small cell lung.
The test system of assay [3] is M19-MEL melanoma.
Assay [4] relates to OVCAR-8 ovarian.
The subject of assay [5] is DLD-1 colon.
Assay [6] has as its system A498 renal.
Assay [7] deals with UACC-257 melanoma.
The test system of assay [8] is KM20L2 colon.
In assay [9] the test system is CCRF-CEM leukemia.
Assay [10] deals with TK-10 renal.
Assay [11] deals with HOP-18 NSCLC.
Assay [12] deals with M14 melanoma.
Assay [13] concerns BT-549 breast.

As to `CC(C)(C)N=NNc1cn(C2OC(CO)C(O)C2O)c(=O)[nH]c1=O` (centres undefined), the TGI in assay [1], in assay [2], in [3], in [4], in assay [5] and in assay [6] was above 100 µM each time. Besides, the TGI in assay [7] is above 100 µM; in [8], above 100 µM; in assay [9] it was 95.4 µM; in assay [10], above 100 µM; in assay [11], above 100 µM; in assay [12], above 100 µM.

On to `CCc1cc(Cc2cc(Cl)c(NC(=O)C(=O)C3NC(=O)NC3=O)c(CC)c2)cc(Cl)c1NC(=O)C(=O)C1NC(=O)NC1=O` (centres undefined), for which the TGI in assay [1] was above 100 µM; in [2], 83.9 µM; in assay [3], above 100 µM; in assay [4], 58.6 µM; in assay [6], above 100 µM; in [7], above 100 µM. Besides, the TGI in assay [8], in [9], in assay [10], in assay [11] and in [12] was above 100 µM throughout.

For `Cc1ccc(S(=O)(=O)N/N=C(\c2nc3ccc(Cl)cc3[nH]c2=O)C(O)c2cccc([N+](=O)[O-])c2)cc1` (centres undefined), the TGI in assay [1], in [2], in assay [3], in [4], in assay [5] and in [6] was above 100 µM in each case. Also, the TGI in assay [7], in [8], in assay [9], in [10], in assay [11] and in [12] was above 100 µM in each case.

With `COc1ccc(-c2cc(=O)c3cc4c(cc3[nH]2)OCO4)cc1OC`, the TGI in assay [1], in assay [2], in assay [3], in assay [4], in assay [5] and in assay [8] was above 100 µM throughout. Besides, the TGI in assay [9], in assay [10], in assay [11] and in assay [12] was above 100 µM each time.

Turning to `O=c1[nH]c(=O)n(C2OC(COP(=O)(O)OP(=O)(O)OC3OC(CO)C(O)C(O)C3O)C(O)C2O)cc1F` (centres undefined), the TGI in [1] is above 100 µM; in assay [2] it was above 100 µM; in [3], 59.4 µM; in [4], above 100 µM; in [5], above 100 µM; in assay [6], 7.43 µM. For the same molecule, the TGI was 48.9 µM in assay [7]; above 100 µM in [8]; above 100 µM in [9]; 30.4 µM in assay [10]; above 100 µM in assay [11]; above 50.1 µM in [12].

On to `O=S(=O)(CCBr)CCBr`, for which the TGI amounted to 16.1 µM in assay [1]; 6.72 µM in assay [2]; 15 µM in assay [3]; 5.68 µM in assay [4]; 8.66 µM in assay [5]; 14.8 µM in [6]. For the same molecule, the TGI in assay [7] is 13.5 µM; in assay [8], 23.2 µM; in assay [9], above 30.2 µM; in assay [11], 32 µM.

For `O=C1Nc2ccccc2C12CCNC2Cc1ccccc1` (centres undefined), the TGI in [1], in assay [2], in assay [3], in assay [4], in [5] and in assay [6] was above 100 µM in each case. In addition, the TGI in assay [7], in assay [8], in [9], in assay [10], in assay [11] and in assay [12] was above 100 µM throughout.

Regarding `CCCN(CCCC(NC(C)=O)C(=O)NCc1ccccc1)C(=O)N(CCCl)N=O` (centres undefined), the TGI is 42.6 µM in assay [1]; 65.7 µM in assay [2]; 28.1 µM in assay [3]; 12.7 µM in [4]; 43.1 µM in [5]; 31.1 µM in assay [6]. For the same molecule, the TGI in assay [13] was found to be 54.1 µM; in assay [7], 47.6 µM; in assay [8], 46.7 µM; in assay [9], 76.8 µM; in assay [10] it was 83.4 µM; in [11], 64.7 µM. This molecule also showed a TGI in assay [12] of 31.7 µM.

On to `Cc1nc(Nc2ccc(Cl)cc2)sc1C(=O)NNc1ccc([N+](=O)[O-])cc1[N+](=O)[O-]`, for which the TGI in [1] came to 38.8 µM; in assay [2] it was 37.8 µM; in assay [3], 41.7 µM; in assay [4] it was 46.5 µM; in assay [5], 28 µM; in [6], 30.6 µM. In addition, the TGI in [7] amounted to 31.3 µM; in [8], 35.4 µM; in assay [9], 52.3 µM; in assay [10], 37.2 µM; in assay [11] it was 27 µM; in assay [12], 45.3 µM.

As to `COC(=O)/C=C1/CCC(C(=O)OC)N1` (centres undefined), the TGI in assay [1], in [2], in [3], in [4], in [5] and in assay [6] was above 100 µM throughout. In addition, the TGI in assay [7], in [8], in assay [9], in assay [10] and in assay [12] was above 100 µM in each case.

Take `O=C(/N=C/c1c(O)c2ccccc2oc1=O)Nc1ccccc1`: the TGI in [1], in [2], in assay [3], in [4], in assay [5] and in [6] was above 100 µM throughout. Moreover, the TGI in assay [7], in assay [8], in assay [9], in assay [10], in [11] and in assay [12] was above 100 µM in each case.

For `COc1ccc2c(c1)N1CCc3cc(OC)c(OC)cc3C1C2` (centres undefined), the TGI in assay [1], in assay [2], in assay [3], in assay [4], in assay [5] and in assay [6] was above 100 µM in each case. The TGI in [7], in assay [8], in assay [9], in [10] and in assay [11] was above 100 µM each time.

Regarding `Cc1cccc2c(=O)c([Se]c3coc4c(C)cccc4c3=O)coc12`, the TGI in assay [1] was determined as 36.8 µM; in [2], 31.7 µM; in [3] it was 30.3 µM; in assay [4], 29.8 µM; in assay [5], 41.5 µM; in [6] it was 41 µM. Besides, the TGI in [7] is 38.5 µM; in assay [8], 52.6 µM; in [9] it was above 100 µM; in assay [10] it was 69.7 µM; in assay [11] it was 41.2 µM; in assay [12] it was 30.3 µM.

Turning to `C[C@]12CCC(=O)C=C1CC[C@@H]1[C@@H]2[C@@H](O)C[C@@]2(C)[C@H]1CC[C@]2(O)C(=O)COC(=O)COCC(=O)O`, the TGI in [1], in [2], in [3], in [4], in [5] and in assay [6] was above 100 µM each time. For the same molecule, the TGI in [7], in [8], in assay [9], in [10], in assay [11] and in [12] was above 100 µM in each case.

For `NC(CCCC(N)P(=O)(O)c1ccccc1)P(=O)(O)c1ccccc1` (centres undefined), the TGI in [1], in [2], in assay [3], in assay [4], in [5] and in assay [6] was above 261 µM each time. The TGI in [7], in assay [8], in assay [9], in assay [10], in [11] and in [12] was above 261 µM each time.
